These results are taken from patent publication US10329260B2, “Human plasma kallikrein inhibitors” (BioCryst Pharmaceuticals, Inc., priority 2014, dated 2019).

The target of one data set is human plasma kallikrein (Homo sapiens (Human), UniProt P03952). Description: Plasma Kallikrein Activity Assay. It is filed as biochemical. Conditions: 2 nM kallikrein, 80 μM chromogenic substrate S2302, 30° C., pH 7.8; Ki by Cheng-Prusoff equation.
Data set [1] relates to patients with hereditary angioedema (HAE). The settings on record: cited from earlier work.
The test system of a further data set is sepsis patients. Conditions: cited from earlier work.
Data set [2] concerns lipopolysaccharide (LPS)- or bacterial-induced sepsis in animals. The settings on record: cited from earlier work.
Data set [3] concerns animal model of ischemic stroke. Conditions: cited from earlier work.
Data set [4] concerns mouse model of middle cerebral artery occlusion (MCAO). The settings on record: cited from earlier work.

Chain of human plasma kallikrein (P03952 whole entry partner, looked up): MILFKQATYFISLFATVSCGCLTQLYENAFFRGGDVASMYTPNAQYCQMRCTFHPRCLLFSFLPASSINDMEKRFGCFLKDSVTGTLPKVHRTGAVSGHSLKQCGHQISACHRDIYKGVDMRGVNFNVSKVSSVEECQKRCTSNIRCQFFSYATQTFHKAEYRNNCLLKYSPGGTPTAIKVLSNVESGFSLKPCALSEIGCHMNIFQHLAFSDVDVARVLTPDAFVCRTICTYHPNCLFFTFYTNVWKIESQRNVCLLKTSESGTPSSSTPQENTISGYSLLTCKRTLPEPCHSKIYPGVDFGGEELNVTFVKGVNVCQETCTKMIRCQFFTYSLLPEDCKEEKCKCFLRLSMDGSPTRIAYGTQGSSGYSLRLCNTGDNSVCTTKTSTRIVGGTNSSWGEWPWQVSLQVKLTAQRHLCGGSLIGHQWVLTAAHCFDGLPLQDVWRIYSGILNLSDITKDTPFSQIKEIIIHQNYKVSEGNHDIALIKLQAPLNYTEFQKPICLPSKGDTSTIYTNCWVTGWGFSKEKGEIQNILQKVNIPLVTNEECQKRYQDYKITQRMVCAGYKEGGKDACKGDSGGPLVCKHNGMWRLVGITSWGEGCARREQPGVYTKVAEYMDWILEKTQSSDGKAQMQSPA
Chain of human plasma kallikrein (P03952 whole entry, looked up): as the sequence (P03952 whole entry partner, looked up) above
Description for human plasma kallikrein: The effect of compounds of the invention on human plasma kallikrein activity was determined using the chromogenic substrates (DiaPharma Group, Inc., West Chester, Ohio, USA). In these experiments, 2 nM kallikrein (Enzyme Research Laboratories, South Bend, Ind., USA) was incubated with 80 μM S2302 (H-D-Pro-Phe-Arg-p-nitroaniline) in the absence or presence of increasing concentrations of compounds of the invention in a final volume of 200 μL Tris-HCl buffer (200 mM NaCl; 2.5 mM CaCl2; 50 mM Tris-HCl, pH 7.8).
Data were analyzed using SigmaPlot software (Systat Software, Inc., San Jose, Calif., USA) (Four Parameter Logistic Curve).

In the case of `Nc1ncnc2ccc(-n3nc(C(F)(F)F)cc3C(=O)Nc3cc(C(NCC4CC4)c4ccccc4)ccc3F)cc12` (centres unmarked) [Compound 226a, 1-(4-aminoquinazolin-6-yl)-N-(5-((cyclopropylmethylamino)(phenyl)methyl)-2-fluorophenyl)-3-(trifluoromethyl)-1H-pyrazole-5-carboxamide], the Ki – broadly, a measure of affinity in units of concentration, obtained from inhibition or displacement – at human plasma kallikrein was above 100 nM.
On to `NC(N)=NCCC[C@@H](N)C(=O)N[C@@H](CCCN=C(N)N)C(=O)N1CCC[C@H]1C(=O)N1C[C@H](O)C[C@H]1C(=O)NCC(=O)N[C@@H](Cc1cccs1)C(=O)N[C@@H](CO)C(=O)N1Cc2ccccc2C[C@@H]1C(=O)N1[C@H](C(=O)N[C@@H](CCCN=C(N)N)C(=O)O)C[C@@H]2CCCC[C@@H]21` [Icatibant], for which the “efficacy in treating HAE” value in data set [1] (HAE) is listed as “effective”.
Take Cl-inhibitor: the “clinical outcome in sepsis patients” value in the data set with sepsis patients was “Clinical improvement”. Besides, in data set [2], the lesions entry is “reduce” and the “vascular permeability in multiple organs” value was “reduce”.
“H-D-Pro-Phe-Arg-chloromethylketone [reference compound]”: the lesions result in data set [2] is “reduce”.
Take ecallantide [DX-88]: the “edema in patients with hereditary angioedema” value in data set [1] (patients with HAE) is recorded as “alleviates edema”. In data set [3], the brain edema entry is “reduced”, the infarct volume entry is “reduced” and the neurological deficits result is listed as “reduced”.

B1: C1-inhibitor (protein, UniProt P05155 23-500, looked up)
Plasma protease C1 inhibitor: NPNATSSSSQDPESLQDRGEGKVATTVISKMLFVEPILEVSSLPTTNSTTNSATKITANTTDEPTTQPTTEPTTQPTIQPTQPTTQLPTDSPTQPTTGSFCPGPVTLCSDLESHSTEAVLGDALVDFSLKLYHAFSAMKKVETNMAFSPFSIASLLTQVLLGAGENTKTNLESILSYPKDFTCVHQALKGFTTKGVTSVSQIFHSPDLAIRDTFVNASRTLYSSSPRVLSNNSDANLELINTWVAKNTNNKISRLLDSLPSDTRLVLLNAIYLSAKWKTTFDPKKTRMEPFHFKNSVIKVPMMNSKKYPVAHFIDQTLKAKVGQLQLSHNLSLVILVPQNLKHRLEDMEQALSPSVFKAIMEKLEMSKFQPTLLTLPRIKVTTSQDMLSIMEKLEFFDFSYDLNLCGLTEDPDLQVSAMQHQTVLELTETGVEAAAASAISVARTLLVFEVQQPFLFVLWDQQHKFPVFMGRVYDPRA
On to B1, for which, in data set [4], the infarct size entry is “reduced”.
